Results from PubChem BioAssay (NCI).
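Five concentrations, 48 hours, 96-well plates. Here, GI50 denotes the concentration required for 50% inhibition of growth. Definition used: TGI = concentration required for complete inhibition of growth.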

Assays:
Assay in all cases: growth of human tumour cells (NCI), 48 h
HL-60(TB) leukemia = test system: HL-60(TB) leukemia
OVCAR-4 ovarian = test system: OVCAR-4 ovarian
CCRF-CEM leukemia = test system: CCRF-CEM leukemia
SF-268 CNS = test system: SF-268 CNS
HCT-15 colon = test system: HCT-15 colon
DU-145 prostate = test system: DU-145 prostate
NCI-H23 lung = test system: NCI-H23 lung
UO-31 renal = test system: UO-31 renal
SK-MEL-2 melanoma = test system: SK-MEL-2 melanoma
MOLT-4 leukemia = test system: MOLT-4 leukemia

## O=C1Nc2c(ccc(Cl)c2Cl)/C1=C/c1cc(Br)c(O)c(Br)c1
HL-60(TB) leukemia
  GI50: 3.01 µM
  TGI: > 23.8 µM
OVCAR-4 ovarian
  GI50: 5.69 µM
  TGI: > 100 µM
CCRF-CEM leukemia
  GI50: 3.95 µM
  TGI: > 65.4 µM
SF-268 CNS
  GI50: 14.6 µM
  TGI: > 100 µM
HCT-15 colon
  GI50: 4.65 µM
  TGI: 35.3 µM
DU-145 prostate
  GI50: 14.3 µM
  TGI: > 100 µM
NCI-H23 lung
  GI50: 4.91 µM
  TGI: > 65.7 µM
UO-31 renal
  GI50: 14.5 µM
  TGI: > 49.7 µM
SK-MEL-2 melanoma
  GI50: 5.15 µM
  TGI: 20.9 µM
MOLT-4 leukemia
  GI50: 4.37 µM
  TGI: > 76.4 µM
